From publication PMC6934184, “Selective DNA-PKcs inhibition extends the therapeutic index of localized radiotherapy and chemotherapy” (The Journal of Clinical Investigation, 2019) come the findings set out here.

The experiment concerns the target T1, PIK3CD/PIK3R1 (p110δ/p85α) (Homo sapiens, UniProt O00329).
T1 construct: purchased Thermo Fisher Scientific (Life Technologies) SelectScreen
Description: SelectScreen Adapta. Type of experiment: biochemical. To be noted: ATP Km app. The procedure: The in vitro kinase selectivity of NU5455 was determined using the SelectScreen Broad Assay Panel (Thermo Fisher Scientific) involving activity and binding assays (Supplemental Table 1). […] Class IA PI3Ks were measured using the p85α subunit.
Kinase [ATP] % Assay Kinase [ATP] % Assay Kinase [ATP] % Assay Kinase [ATP] % Assay […]
SGK (SGK1) Km app 8.5 Z MAP4K2 (GCK) Km app 2.7 Z TLK2 n/a -0.3 L STK38 (NDR) n/a -5.9 L
MERTK (cMER) Km app 8.3 Z CDK2/cyclin A Km app 2.7 Z TGFBR1 (ALK5) n/a -0.4 L MATK (HYL) Km app -6.3 Z
FYN Km app 8.3 Z EPHA1 Km app 2.7 Z CLK3 Km app -0.5 Z ABL1 E255K Km app -6.6 Z
TEC n/a 8.1 L CDK2/cyclin E1 n/a 2.7 L MAP3K14 (NIK) n/a -0.5 L STK17A (DRAK1) n/a -6.6 L
KIT V654A n/a 8.1 L TESK2 n/a 2.7 L AKT3 (PKB gamma) Km app -0.5 Z JAK2 JH1 JH2 Km app -6.7 Z
ROS1 Km app 8.0 Z SPHK1 Km app 2.7 A MAP3K9 (MLK1) Km app -0.5 Z PRKACB (PRKAC beta) n/a -6.8 L
FGFR3 K650E Km app 7.9 Z AMPK A2/B1/G1 Km app 2.6 Z IKBKB (IKK beta) Km app -0.6 Z PDGFRA (PDGFR alpha) Km app -6.8 Z
RAF1 (cRAF) Y340D Y341D 100 7.9 Z DYRK3 Km app 2.6 Z CAMK2A (CaMKII alpha) Km app -0.6 Z NEK9 Km app -7.2 Z
PI4KA (PI4K alpha) 10 7.8 A CSNK1D (CK1 delta) Km app 2.6 Z PRKCB1 (PKC beta I) Km app -0.7 Z PDK1 Km app -7.3 Z
HIPK2 Km app 7.8 Z ACVR2A n/a 2.5 L TTK n/a -0.7 L RPS6KB1 (p70S6K) Km app -7.8 Z
CSK Km app 7.6 Z DDR2 T654M n/a 2.5 L ZAK n/a -0.7 L STK38L (NDR2) n/a -8.4 L
PRKCG (PKC gamma) Km app 7.6 Z JAK2 Km app 2.5 Z IKBKE (IKK epsilon) Km app -0.7 Z ABL1 G250E Km app -8.5 Z
SRMS (Srm) Km app 7.5 Z HIPK3 (YAK1) Km app 2.5 Z CAMK2G (CaMKII gamma) n/a -0.8 L PRKD1 (PKC mu) Km app -8.5 Z
YES1 Km app 7.4 Z AMPK (A1/B1/G2) n/a 2.4 L TLK1 n/a -0.8 L CDK5/p35 Km app -8.6 Z
RPS6KA5 (MSK1) Km app 7.4 Z MYO3B (MYO3 beta) n/a 2.3 L MAPK12 (p38 gamma) Km app -0.8 Z PDGFRA T674I Km app -8.9 Z
TNIK n/a 7.3 L PASK Km app 2.3 Z PRKCI (PKC iota) Km app -0.8 Z BLK Km app -8.9 Z
FER Km app 7.1 Z ACVRL1 (ALK1) n/a 2.3 L PKN2 (PRK2) n/a -1.0 L PRKD2 (PKD2) Km app -9.1 Z
CDK16 (PCTK1)/cyclin Y n/a 7.0 L EGFR (ErbB1) L861Q Km app 2.2 Z PIM1 Km app -1.0 Z CSNK1G2 (CK1 gamma 2) Km app -9.3 Z
MST4 Km app 6.9 Z RPS6KA3 (RSK2) Km app 2.1 Z CDK5/p25 Km app -1.1 Z ROCK1 Km app -9.5 Z
FLT1 (VEGFR1) Km app 6.5 Z STK23 (MSSK1) Km app 2.0 Z SRPK1 Km app -1.1 Z PRKCB2 (PKC beta II) Km app -9.6 Z
DYRK1A Km app 6.4 Z ALK R1275Q n/a 2.0 L BRSK1 (SAD1) Km app -1.1 Z CSNK1G1 (CK1 gamma 1) Km app -9.9 Z
PRKCD (PKC delta) Km app 6.2 Z TBK1 Km app 2.0 Z MAP3K3 (MEKK3) n/a -1.1 L ABL2 (Arg) Km app -10.3 Z
EGFR (ErbB1) Km app 6.0 Z ACVR1B (ALK4) Km app 2.0 Z AMPK A1/B1/G1 Km app -1.2 Z STK3 (MST2) Km app -10.3 Z
CDC7/DBF4 n/a 6.0 L CDK3/cyclin E1 n/a 1.9 L WNK3 n/a -1.2 L CAMK4 (CaMKIV) Km app -10.4 Z
JAK3 Km app 6.0 Z KDR (VEGFR2) Km app 1.8 Z LATS1 n/a -1.3 L MKNK1 (MNK1) Km app -10.7 Z
MAPK13 (p38 delta) Km app 5.8 Z ULK1 n/a 1.8 L DMPK n/a -1.5 L FLT3 ITD n/a -11.6 L
FRAP1 (mTOR) Km app 5.7 Z AURKB (Aurora B) Km app 1.7 Z CDK2/cyclin A1 n/a -1.6 L CHEK2 (CHK2) Km app -11.7 Z
KIT Y823D n/a 5.6 L LRRK2 Km app 1.7 A LIMK1 n/a -1.7 L LTK (TYK1) Km app -13.1 Z
ITK Km app 5.5 Z MAP2K3 (MEK3) n/a 1.6 L DYRK1B Km app -1.8 Z JAK2 JH1 JH2 V617F Km app -13.8 Z
KIT Km app 5.3 Z DAPK1 Km app 1.6 A DDR1 n/a -1.8 L EPHA8 Km app -13.8 Z
CDK7/cyclin H/MNAT1 Km app 5.3 A EPHA6 n/a 1.6 L BTK Km app -2.0 Z EGFR (ErbB1) T790M L858R Km app -14.1 Z
RET Km app 5.2 Z MAP4K1 (HPK1) n/a 1.6 L ADRBK1 (GRK2) Km app -2.0 Z MET M1250T Km app -14.5 Z […]

T1 sequence (O00329 whole entry): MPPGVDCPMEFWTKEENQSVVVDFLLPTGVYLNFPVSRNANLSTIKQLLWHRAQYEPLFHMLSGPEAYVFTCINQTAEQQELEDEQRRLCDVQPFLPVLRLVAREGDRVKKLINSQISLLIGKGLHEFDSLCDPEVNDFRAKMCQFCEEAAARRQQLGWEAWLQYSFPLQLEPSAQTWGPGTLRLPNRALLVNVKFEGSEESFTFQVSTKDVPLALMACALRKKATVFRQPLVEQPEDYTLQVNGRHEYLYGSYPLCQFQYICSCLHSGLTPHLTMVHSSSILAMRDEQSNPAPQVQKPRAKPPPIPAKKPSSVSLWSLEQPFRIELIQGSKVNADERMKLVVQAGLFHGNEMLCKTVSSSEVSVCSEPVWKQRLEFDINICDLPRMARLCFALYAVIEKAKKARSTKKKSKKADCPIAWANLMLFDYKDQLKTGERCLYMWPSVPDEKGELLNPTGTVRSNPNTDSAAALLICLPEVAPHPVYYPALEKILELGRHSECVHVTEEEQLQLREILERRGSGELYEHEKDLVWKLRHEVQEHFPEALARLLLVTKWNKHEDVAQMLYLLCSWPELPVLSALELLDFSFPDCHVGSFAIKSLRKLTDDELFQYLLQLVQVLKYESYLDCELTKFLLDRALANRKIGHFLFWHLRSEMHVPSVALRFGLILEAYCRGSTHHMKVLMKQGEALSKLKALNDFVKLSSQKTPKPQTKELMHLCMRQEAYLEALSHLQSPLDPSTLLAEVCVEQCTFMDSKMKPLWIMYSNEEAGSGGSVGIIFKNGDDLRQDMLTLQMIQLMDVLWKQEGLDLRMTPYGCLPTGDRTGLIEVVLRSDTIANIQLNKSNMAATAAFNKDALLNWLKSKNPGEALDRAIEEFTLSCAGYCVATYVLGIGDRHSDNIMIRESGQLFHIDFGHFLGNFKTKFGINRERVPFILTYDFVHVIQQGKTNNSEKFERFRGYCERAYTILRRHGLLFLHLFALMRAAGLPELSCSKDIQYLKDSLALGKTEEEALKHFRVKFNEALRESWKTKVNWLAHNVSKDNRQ
T1 sequence (P27986 whole entry partner): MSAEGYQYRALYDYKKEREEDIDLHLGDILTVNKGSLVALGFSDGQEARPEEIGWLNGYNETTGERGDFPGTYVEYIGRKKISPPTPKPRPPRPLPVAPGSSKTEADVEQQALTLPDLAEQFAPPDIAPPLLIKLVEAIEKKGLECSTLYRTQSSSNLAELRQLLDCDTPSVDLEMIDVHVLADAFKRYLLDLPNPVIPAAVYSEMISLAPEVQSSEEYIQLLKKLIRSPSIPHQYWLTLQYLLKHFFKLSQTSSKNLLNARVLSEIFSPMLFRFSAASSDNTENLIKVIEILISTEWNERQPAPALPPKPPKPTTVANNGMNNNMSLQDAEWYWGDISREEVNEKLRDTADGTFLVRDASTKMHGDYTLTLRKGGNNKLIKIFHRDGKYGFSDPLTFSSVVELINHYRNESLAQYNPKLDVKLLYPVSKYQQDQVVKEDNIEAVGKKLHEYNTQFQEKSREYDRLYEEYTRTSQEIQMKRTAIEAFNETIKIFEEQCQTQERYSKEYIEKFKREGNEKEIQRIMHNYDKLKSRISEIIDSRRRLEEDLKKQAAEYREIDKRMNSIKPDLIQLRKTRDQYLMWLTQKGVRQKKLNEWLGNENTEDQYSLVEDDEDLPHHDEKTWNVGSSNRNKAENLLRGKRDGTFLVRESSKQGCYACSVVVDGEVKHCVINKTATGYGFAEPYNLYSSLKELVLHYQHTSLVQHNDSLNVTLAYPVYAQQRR

For `CN(C(=O)CN1CCOCC1)c1ccc2sc3c(-c4cccc5c(=O)cc(N6CC7CCC(C6)O7)oc45)cccc3c2c1` [NU5455], at 1 µM the inhibition was 57.5%. In addition, the “% inhibition” value (1 µM) is 57%.

The term % inhibition denotes the drop in the measured response relative to a control, in per cent. A low value points to a response near the control. What is called inhibition is the drop in the measured response relative to a control, in per cent. A low value points to a weak effect.
